Experimental findings from patent US20240067632A1, “WEE1 Degrading Compounds and Uses Thereof” (Bristol-Myers Squibb Company, priority 2022, published 2024) are described below.

In one assay the target is T1, WEE1 (Homo sapiens, UniProt P30291+Q96SW2).
T1 construct: C-terminal ePL-tagged (DiscoverX, Fremont, CA) full-length WEE1 expression construct; expressed in transfected cells; host or cells: LentiX-HEK293T (Invitrogen), lentiviral transduction; co-expressing GSPT1-GN (G576N, lacking the first 158 amino acids)
Briefly: WEE1-ePL degradation assay (LentiX-WEE1-ePL-GSPT1-ND cells, InCELL Hunter luminescence, 4 h). Format: cell-based. The note with it: 293T-LentiX WEE1-ePL cells; for 293T-LentiX WEE1-ePL Degradation 4 hr (Ymin): lower limit of the fit (0 = luciferase inhibitor, Ymax = DMSO control); for DC50: read-out: 293T-LentiX WEE1-ePL Degradation 4 hr (EC50). The procedure, abridged: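 LentiX-HEK293T cells stably expressing C-terminally ePL-tagged full-length WEE1 were treated with compounds in a 10-point, 3-fold dilution series starting at 1 uM or 10 uM for 4 h at 37 °C. Remaining WEE1-ePL was detected by InCELL Hunter luminescence, and EC50, Ymin and Ymax came from a four-parameter logistic fit against DMSO control.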

The test system of another assay is MKN45 cells. Briefly: MKN45 cell proliferation assay (Cell-Titer-Glo, 120 h). Format: cell-based. The note with it: for EC50: Homo sapiens, MKN-45, 120 h, Cell-Titer-Glo, growth inhibition, read-out: MKN45 Cell Prolif. 120 hr (EC50); for MKN45 Cell Prolif. 120 hr (Ymin-Obs): minimal percent of DMSO control observed in the concentrations tested. The essentials: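 Cells seeded at 400/well onto pre-printed 10-point half-log dilutions (top 1 or 10 uM, 0.1% DMSO final), in triplicate, and grown 120 h at 37 C. Viability by Cell-Titer-Glo luminescence, blank-subtracted and normalised to DMSO; EC50 from four-parameter logistic fit, with observed minimal % of control recorded as Ymin-obs.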

Each structure is given as a SMILES string.

As a reminder, the EC50 is the concentration needed to bring the measured effect to its halfway point. As to `CO[C@H]1CCC[C@@H](c2ccc3cc(CN4CC[C@H](Oc5ccc6c(c5)CN(C5CCC(=O)NC5=O)C6=O)C4)ccc3n2)C1` (stereo partly drawn) [3-(5-{[(3S)-1-({2-[(1R,3S)-3-methoxycyclohexyl]quinolin-6-yl}methyl)pyrrolidin-3-yl]oxy}-1-oxo-2,3-dihydro-1H-isoindol-2-yl)piperidine-2,6-dione], at WEE1, the “293T-LentiX WEE1-ePL Degradation 4 hr (Ymin)” value was 27.5 and the DC50 turned out to be 3.49 nM. In addition, in the assay with MKN45 cells, the 50% effective concentration (EC50) came out at 1.96 nM and the “MKN45 Cell Prolif. 120 hr (Ymin-Obs)” value worked out at 7.623.
For `CO[C@H]1CC[C@@H](c2ccc3cc(CN4CC[C@H](Oc5ccc6c(c5)CN(C5CCC(=O)NC5=O)C6=O)C4)ccc3n2)C1` (stereo partly drawn) [3-(5-{[(3S)-1-({2-[(1R,3S)-3-methoxycyclopentyl]quinolin-6-yl}methyl)pyrrolidin-3-yl]oxy}-1-oxo-2,3-dihydro-1H-isoindol-2-yl)piperidine-2,6-dione], in that order: 28.33, 3.2 nM, 0.741 nM and 7.233.
With `O=C1CCC(N2Cc3cc(O[C@H]4CCN(Cc5ccc6nc(N7C[C@H]8C[C@@H]7CO8)ncc6c5)C4)ccc3C2=O)C(=O)N1` (stereo partly drawn) [3-(5-{[(3S)-1-({2-[(1R,4R)-2-oxa-5-azabicyclo[2.2.1]heptan-5-yl]quinazolin-6-yl}methyl)pyrrolidin-3-yl]oxy}-1-oxo-2,3-dihydro-1H-isoindol-2-yl)piperidine-2,6-dione], at WEE1, the “293T-LentiX WEE1-ePL Degradation 4 hr (Ymin)” value is 39 and the DC50 was 80.1 nM. In the assay with MKN45 cells, the EC50 amounted to 76.6 nM and the “MKN45 Cell Prolif. 120 hr (Ymin-Obs)” value was found to be 16.57.
In the case of `O=C1CCC(N2Cc3cc(O[C@H]4CCN(Cc5ccc6nc(N7C[C@H]8C[C@@H]7CO8)ccc6c5)C4)ccc3C2=O)C(=O)N1` (stereo partly drawn) [3-(5-{[(3S)-1-({2-[(1R,4R)-2-oxa-5-azabicyclo[2.2.1]heptan-5-yl]quinolin-6-yl}methyl)pyrrolidin-3-yl]oxy}-1-oxo-2,3-dihydro-1H-isoindol-2-yl)piperidine-2,6-dione], on WEE1, the “293T-LentiX WEE1-ePL Degradation 4 hr (Ymin)” value was 33 and the DC50 is 5.67 nM. Also, in the assay on MKN45 cells, the EC50 amounted to 6.19 nM and the “MKN45 Cell Prolif. 120 hr (Ymin-Obs)” value is recorded as 9.745.
Consider `O=C1CCC(N2Cc3cc(O[C@H]4CCN(Cc5ccc6nc(N7[C@@H]8COC[C@H]7C8)ncc6c5)C4)ccc3C2=O)C(=O)N1` (stereo partly drawn) [3-(5-{[(3S)-1-({2-[(1R,5S)-3-oxa-6-azabicyclo[3.1.1]heptan-6-yl]quinazolin-6-yl}methyl)pyrrolidin-3-yl]oxy}-1-oxo-2,3-dihydro-1H-isoindol-2-yl)piperidine-2,6-dione], for which, on WEE1, the “293T-LentiX WEE1-ePL Degradation 4 hr (Ymin)” value is on record as 38 and the DC50 is 117 nM. In addition, in the assay on MKN45 cells, the EC50 came out at 17 nM and the “MKN45 Cell Prolif. 120 hr (Ymin-Obs)” value is 10.76.
As to `O=C1CCC(N2Cc3cc(O[C@H]4CCN(Cc5ccc6nc(N7[C@@H]8COC[C@H]7C8)ccc6c5)C4)ccc3C2=O)C(=O)N1` (stereo partly drawn) [3-(5-{[(3S)-1-({2-[(1R,5S)-3-oxa-6-azabicyclo[3.1.1]heptan-6-yl]quinolin-6-yl}methyl)pyrrolidin-3-yl]oxy}-1-oxo-2,3-dihydro-1H-isoindol-2-yl)piperidine-2,6-dione], at WEE1, the “293T-LentiX WEE1-ePL Degradation 4 hr (Ymin)” value came out at 37 and the DC50 stood at 8.62 nM. For the same compound, in the assay on MKN45 cells, the EC50 amounted to 11.2 nM and the “MKN45 Cell Prolif. 120 hr (Ymin-Obs)” value amounted to 9.645.
Turning to `O=C1CCC(N2Cc3cc(O[C@H]4CCN(Cc5ccc6nc(N7[C@@H]8CC[C@H]7COC8)ncc6c5)C4)ccc3C2=O)C(=O)N1` (stereo partly drawn) [3-(5-{[(3S)-1-({2-[(1R,5S)-3-oxa-8-azabicyclo[3.2.1]octan-8-yl]quinazolin-6-yl}methyl)pyrrolidin-3-yl]oxy}-1-oxo-2,3-dihydro-1H-isoindol-2-yl)piperidine-2,6-dione], on WEE1, the “293T-LentiX WEE1-ePL Degradation 4 hr (Ymin)” value is on record as 33 and the DC50 was 101 nM. In the assay with MKN45 cells, the 50% effective concentration (EC50) stood at 24.9 nM and the “MKN45 Cell Prolif. 120 hr (Ymin-Obs)” value is 8.88.
`O=C1CCC(N2Cc3cc(O[C@H]4CCN(Cc5ccc6nc(N7[C@@H]8CC[C@H]7COC8)ccc6c5)C4)ccc3C2=O)C(=O)N1` (stereo partly drawn) [3-(5-{[(3S)-1-({2-[(1R,5S)-3-oxa-8-azabicyclo[3.2.1]octan-8-yl]quinolin-6-yl}methyl)pyrrolidin-3-yl]oxy}-1-oxo-2,3-dihydro-1H-isoindol-2-yl)piperidine-2,6-dione]: at WEE1, the “293T-LentiX WEE1-ePL Degradation 4 hr (Ymin)” value is reported as 28 and the DC50 amounted to 4.47 nM. Besides, in the assay with MKN45 cells, the EC50 was 9.72 nM and the “MKN45 Cell Prolif. 120 hr (Ymin-Obs)” value was determined as 11.965.
`O=C1CCC(N2Cc3cc(O[C@H]4CCN(Cc5ccc6nc(N7C[C@H]8C[C@@H](C7)O8)ncc6c5)C4)ccc3C2=O)C(=O)N1` (stereo partly drawn) [3-(5-{[(3S)-1-({2-[(1R,5S)-6-oxa-3-azabicyclo[3.1.1]heptan-3-yl]quinazolin-6-yl}methyl)pyrrolidin-3-yl]oxy}-1-oxo-2,3-dihydro-1H-isoindol-2-yl)piperidine-2,6-dione]: at WEE1, the “293T-LentiX WEE1-ePL Degradation 4 hr (Ymin)” value was 39 and the DC50 amounted to 20.2 nM. For the same compound, in the assay on MKN45 cells, the EC50 worked out at 16.4 nM and the “MKN45 Cell Prolif. 120 hr (Ymin-Obs)” value is 13.42.
As for `O=C1CCC(N2Cc3cc(O[C@H]4CCN(Cc5ccc6nc(N7C[C@H]8C[C@@H](C7)O8)ccc6c5)C4)ccc3C2=O)C(=O)N1` (stereo partly drawn) [3-(5-{[(3S)-1-({2-[(1R,5S)-6-oxa-3-azabicyclo[3.1.1]heptan-3-yl]quinolin-6-yl}methyl)pyrrolidin-3-yl]oxy}-1-oxo-2,3-dihydro-1H-isoindol-2-yl)piperidine-2,6-dione], at WEE1, the “293T-LentiX WEE1-ePL Degradation 4 hr (Ymin)” value was 38 and the DC50 is 1.98 nM. Further, in the assay on MKN45 cells, the EC50 was found to be 3.19 nM and the “MKN45 Cell Prolif. 120 hr (Ymin-Obs)” value is on record as 9.79.
Turning to `O=C1CCC(N2Cc3cc(O[C@H]4CCN(Cc5ccc6nc(N7C[C@H]8CC[C@@H](C7)O8)ncc6c5)C4)ccc3C2=O)C(=O)N1` (stereo partly drawn) [3-(5-{[(3S)-1-({2-[(1R,5S)-8-oxa-3-azabicyclo[3.2.1]octan-3-yl]quinazolin-6-yl}methyl)pyrrolidin-3-yl]oxy}-1-oxo-2,3-dihydro-1H-isoindol-2-yl)piperidine-2,6-dione], at WEE1, the “293T-LentiX WEE1-ePL Degradation 4 hr (Ymin)” value amounted to 35 and the DC50 stood at 45.9 nM. In the assay with MKN45 cells, the half-maximal effective concentration (EC50) was 15.6 nM and the “MKN45 Cell Prolif. 120 hr (Ymin-Obs)” value stood at 11.04.
`O=C1CCC(N2Cc3cc(O[C@H]4CCN(Cc5ccc6nc(N7C[C@H]8CC[C@@H](C7)O8)ccc6c5)C4)ccc3C2=O)C(=O)N1` (stereo partly drawn) [3-(5-{[(3S)-1-({2-[(1R,5S)-8-oxa-3-azabicyclo[3.2.1]octan-3-yl]quinolin-6-yl}methyl)pyrrolidin-3-yl]oxy}-1-oxo-2,3-dihydro-1H-isoindol-2-yl)piperidine-2,6-dione]: at WEE1, the “293T-LentiX WEE1-ePL Degradation 4 hr (Ymin)” value is on record as 37 and the DC50 was 6.5 nM. For the same compound, in the assay with MKN45 cells, the EC50 is 6.42 nM and the “MKN45 Cell Prolif. 120 hr (Ymin-Obs)” value worked out at 11.085.
